According to ChEMBL document CHEMBL1201862, “PubChem BioAssay data set” (2004):
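All cell lines were grown in 96-well plates and treated with compound for 48 hours. GI50 marks 50% less growth.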 Calls of active or inactive are those of the source. No stated cut-off is given here; in the data, active = GI50 up to about 1.1 µM and inactive = higher.

What was measured:
Test in all cases: growth of human tumour cells (NCI), 48 h
[1] = test system: A549
[2] = test system: EKVX
[3] = test system: HCC 2998
[4] = test system: HCT-116
[5] = test system: MOLT-4
[6] = test system: Malme-3M
[7] = test system: NCI-H226
[8] = test system: NCI-H522
[9] = test system: OVCAR-4
[10] = test system: OVCAR-5
[11] = test system: RXF 393
[12] = test system: SF-295
[13] = test system: SK-MEL-28
[14] = test system: UACC-257
[15] = test system: UO-31
[16] = test system: RPMI-8226
[17] = test system: HOP-92

Measured: GI50

Cc1ccc(/C=C/C(=O)c2ccc([N+](=O)[O-])cc2)cc1
inactive: [1] > 100 µM | [2] > 100 µM | [3] > 100 µM | [4] > 100 µM | [5] > 100 µM | [6] > 100 µM | [7] > 100 µM | [8] 56.4 µM | [9] > 100 µM | [10] > 100 µM | [11] > 100 µM | [12] > 100 µM | [13] > 100 µM | [14] > 100 µM | [15] 59.4 µM

Cc1ccc(NC(=O)/C(CC(=O)c2c[n+]([O-])c3ccccc3[n+]2[O-])=N\NC(=O)C[n+]2ccccc2)cc1
inactive: [1] > 100 µM | [2] > 100 µM | [3] > 100 µM | [4] > 100 µM | [5] > 100 µM | [6] > 100 µM | [7] > 100 µM | [8] > 100 µM | [9] 64.1 µM | [10] > 100 µM | [16] > 100 µM | [11] > 100 µM | [12] > 100 µM | [13] > 100 µM | [14] > 100 µM | [15] > 100 µM

COC(=O)Cc1cc(=O)n2c([nH]c3ccccc32)c1C#N
inactive: [1] > 100 µM | [2] > 100 µM | [3] > 100 µM | [4] > 100 µM | [5] > 100 µM | [6] 81.3 µM | [7] > 100 µM | [9] > 100 µM | [10] > 100 µM | [16] 56.4 µM | [11] 97.3 µM | [12] > 100 µM | [13] > 100 µM | [14] > 100 µM | [15] 61 µM

COc1cc(/C=C2\CCc3ccccc3C2=O)ccc1O
inactive: [1] 22.1 µM | [2] 25.4 µM | [3] 5.64 µM | [17] 22.6 µM | [5] 12 µM | [9] 18.5 µM | [10] 14.2 µM | [16] 17.9 µM | [11] 12 µM | [13] 21.1 µM | [15] 14.3 µM

O=C1c2cccc3c2C(=O)c2c(cccc21)OCCOCCOCCOCCO3
inactive: [1] > 100 µM | [2] > 100 µM | [3] > 100 µM | [4] > 100 µM | [5] 31.5 µM | [6] > 100 µM | [7] 34.2 µM | [8] > 100 µM | [9] 74.6 µM | [10] > 100 µM | [16] 55.2 µM | [11] 78.2 µM | [12] > 100 µM | [14] > 100 µM | [15] 30.9 µM

COc1ccc(NC(=O)CSc2nnc(Cc3ccccc3)o2)cc1
inactive: [1] > 100 µM | [3] > 100 µM | [4] > 100 µM | [5] > 100 µM | [6] > 100 µM | [7] > 100 µM | [8] 53.7 µM | [9] > 100 µM | [10] > 100 µM | [16] 41.4 µM | [11] > 100 µM | [12] 55.6 µM | [13] > 100 µM | [14] > 100 µM | [15] > 100 µM

CC(=O)N[C@@H]1C(O)CN2C(=O)C(=O)O[C@H](C(O)CO)[C@@H]12 (stereo partly specified)
inactive: [1] > 100 µM | [2] > 100 µM | [3] > 100 µM | [4] > 100 µM | [17] > 100 µM | [5] > 100 µM | [6] > 100 µM | [8] > 100 µM | [10] > 100 µM | [16] > 100 µM | [11] > 100 µM | [12] > 100 µM | [13] > 100 µM | [14] > 100 µM | [15] > 100 µM

Cc1nc(-n2nc(-c3ccccc3)cc2-c2ccccc2)sc1C(=O)/C=C/c1ccc(Cl)c(Cl)c1
inactive: [1] 25.6 µM | [2] 27 µM | [3] 24.7 µM | [4] 26.7 µM | [5] 11.8 µM | [6] 32.4 µM | [7] 15.3 µM | [8] 10 µM | [9] 21.1 µM | [10] 18.8 µM | [11] 28.1 µM | [12] 16.7 µM | [13] 31.3 µM | [14] 25.8 µM | [15] 10.6 µM

C/C=C/c1cc(=O)c([C@@H]2OC(=O)c3cc(OC)cc(OC)c32)co1 [VERMISTATIN]
inactive: [1] 58.6 µM | [2] 65.5 µM | [3] 26 µM | [4] 23.7 µM | [17] 49 µM | [5] 38.6 µM | [7] 60.4 µM | [9] 54.3 µM | [16] 35.4 µM | [11] 42.2 µM | [12] 39.5 µM | [13] 25.3 µM | [14] 29.1 µM | [15] 24.4 µM
